Measured values published in patent US11833158B2, “Compositions comprising omega-3 fatty acids, 17-HDHA and 18-HEPE and methods of using same” (Solutex NA LLC, priority 2015, dated 2023).

Test system: PMA-stimulated THP-1 cells
Test: Phagocytosis of opsonized zymosan bioparticles in PMA-stimulated THP-1 cells (fluorescence)
Assay type: cell-based, human
Conditions: oils diluted 1/10^3; Mar-1 at 1 nM; 15 min pretreatment, 60 min incubation with zymosan
Experimental: To determine the capacity of promoting a macrophage pro-resolution phenotype (i.e. M2) and therefore to foster the resolution of inflammation, several oils were tested in a human macrophage model adapted by López Vicario C from a method previously described (Titos et al., 2011) and compared with Mar-1 (the term Maresins is coined from Macrophage mediator in resolving inflammation), an established active compound in resolution of the inflammation.
THP-1 cells were cultured in a 96-well black plate at a density of 3.5×10^4 cells/well in 200 μl RPMI 1640 medium (10% FBS). […]
The compounds tested in this macrophage model were: • Maresin 1 (from Cayman Chemicals) • LM03-1 (a total amount of Omega-3 of about 629.9 mg/g (as FFA), DHA in an amount of about 342.1 mg/g (as FFA), EPA in an amount of about 187.6 mg/g (as FFA), 17-HDHA in an amount of about 60.8 mg/kg and 18-HEPE in an amount of about 87.5 mg/kg with 1.4 mg/g of a mixed natural tocopherols—3624 EE (about 33.0% EPA ethyl ester and about 22% DHA in ethyl ester form expressed as FFA) • Omacor (about 42.5% EPA ethyl ester and about 34.5% DHA in ethyl ester form expressed as FFA)
The concentration of Mar-1 used in the experiment was 1 nM, which has been determined the concentration with maximum activity in phagocytic activation for this compound in previous experiments using this model (data not shown). […]

CC/C=C\C/C=C\C[C@H](O)/C=C/C=C/C=C/[C@H](O)C/C=C\CCC(=O)O [Maresin-1, 7R,14S-dihydroxy-4Z,8E,10E,12E,16Z,19Z-docosahexaenoic acid]
phagocytic activity relative to Mar-1 (100% assigned to Mar-1 1 nM): 100%
